These are literature values, as cited in US20190307696A1, “TABLETS COMPRISING MIRABEGRON AND SOLIFENACIN” (SYNTHON B.V., priority 2016, published 2019).

For series [1] the following is noted: neutral to acidic pH.
For series [2] the following is noted: presence of food in the GI tract.

Regarding `Nc1nc(CC(=O)Nc2ccc(CCNC[C@H](O)c3ccccc3)cc2)cs1` [Mirabegron], the “permeability (BCS)” value is listed as “low permeability” and the “solubility (BCS)” value is recorded as “high solubility”. The solubility in water entry in series [1] was “soluble in water between neutral to acidic pH”. The bioavailability result in series [2] was “affected by the presence of food in the GI tract”.
